Measured values as given in ChEMBL document CHEMBL1909046, “DrugMatrix in vitro pharmacology data”.

Legend:
[1] = molecular target: T1, Alpha-1D adrenergic receptor (Homo sapiens, UniProt P25100); format: cell membranes, HEK293, Membrane; conditions: hek293; further: in other assays of this panel Not Active means under 50% inhibition at 10 µM
T1 sequence (P25100 whole entry): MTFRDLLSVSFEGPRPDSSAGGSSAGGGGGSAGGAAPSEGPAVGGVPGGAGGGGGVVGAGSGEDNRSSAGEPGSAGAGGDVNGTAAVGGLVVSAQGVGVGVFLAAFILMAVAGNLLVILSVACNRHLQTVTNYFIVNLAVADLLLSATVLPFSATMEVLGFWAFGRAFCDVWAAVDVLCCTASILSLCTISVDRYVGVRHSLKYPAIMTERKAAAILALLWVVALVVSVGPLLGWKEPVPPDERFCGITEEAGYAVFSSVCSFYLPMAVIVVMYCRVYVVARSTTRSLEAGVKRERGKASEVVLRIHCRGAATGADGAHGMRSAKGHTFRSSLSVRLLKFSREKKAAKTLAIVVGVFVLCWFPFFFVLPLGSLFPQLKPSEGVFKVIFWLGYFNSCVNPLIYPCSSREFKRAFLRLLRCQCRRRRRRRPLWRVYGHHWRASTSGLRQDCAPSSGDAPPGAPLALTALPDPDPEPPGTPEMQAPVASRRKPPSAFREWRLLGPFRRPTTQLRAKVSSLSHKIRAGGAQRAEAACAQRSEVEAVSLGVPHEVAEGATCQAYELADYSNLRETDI

[2] = molecular target: Beta-2 adrenergic receptor (Homo sapiens, UniProt P07550); assay: DRUGMATRIX: Adrenergic beta2 radioligand binding (ligand: [3H] CGP-12177); format: cell membranes, Membrane; conditions: cho; Not Active = under 50% inhibition at 10 µM
[3] = molecular target: Beta-3 adrenergic receptor (Homo sapiens, UniProt P13945); assay: DRUGMATRIX: Adrenergic beta3 radioligand binding (ligand: [125I] Cyanopindolol); format: cell membranes, Membrane; conditions: hek293; Not Active = under 50% inhibition at 10 µM
[4] = molecular target: 5-hydroxytryptamine receptor 6 (Homo sapiens, UniProt P50406); format: cell membranes, HeLa, Membrane; conditions: hela; further: in other assays of this panel Not Active means under 50% inhibition at 10 µM
[5] = molecular target: C-C chemokine receptor type 5 (Homo sapiens, UniProt P51681); format: cell membranes, HEK293, Membrane; conditions: hek293; further: in other assays of this panel Not Active means under 50% inhibition at 10 µM
[6] = molecular target: T2, Muscarinic acetylcholine receptor M5 (Homo sapiens, UniProt P08912); format: cell membranes, CHO-K1, Membrane; conditions: cho-k1; further: in other assays of this panel Not Active means under 50% inhibition at 10 µM
T2 sequence (P08912 whole entry): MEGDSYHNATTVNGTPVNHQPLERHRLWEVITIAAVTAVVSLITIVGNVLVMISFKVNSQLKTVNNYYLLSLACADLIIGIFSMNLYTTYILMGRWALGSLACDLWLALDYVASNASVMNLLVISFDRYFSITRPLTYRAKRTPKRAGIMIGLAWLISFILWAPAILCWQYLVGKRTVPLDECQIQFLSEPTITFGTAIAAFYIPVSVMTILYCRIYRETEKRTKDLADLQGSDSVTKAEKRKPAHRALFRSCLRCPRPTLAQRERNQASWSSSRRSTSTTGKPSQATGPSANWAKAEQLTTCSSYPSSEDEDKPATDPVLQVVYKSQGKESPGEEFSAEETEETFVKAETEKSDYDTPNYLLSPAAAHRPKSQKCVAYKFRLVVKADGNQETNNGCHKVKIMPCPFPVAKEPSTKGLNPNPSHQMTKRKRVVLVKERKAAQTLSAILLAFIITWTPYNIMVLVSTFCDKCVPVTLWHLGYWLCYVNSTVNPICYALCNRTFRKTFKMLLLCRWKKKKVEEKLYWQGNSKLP

[7] = molecular target: T3, Nitric oxide synthase, inducible (Mus musculus, UniProt P29477); set-up: species or system Escherichia coli
T3 sequence (P29477 whole entry): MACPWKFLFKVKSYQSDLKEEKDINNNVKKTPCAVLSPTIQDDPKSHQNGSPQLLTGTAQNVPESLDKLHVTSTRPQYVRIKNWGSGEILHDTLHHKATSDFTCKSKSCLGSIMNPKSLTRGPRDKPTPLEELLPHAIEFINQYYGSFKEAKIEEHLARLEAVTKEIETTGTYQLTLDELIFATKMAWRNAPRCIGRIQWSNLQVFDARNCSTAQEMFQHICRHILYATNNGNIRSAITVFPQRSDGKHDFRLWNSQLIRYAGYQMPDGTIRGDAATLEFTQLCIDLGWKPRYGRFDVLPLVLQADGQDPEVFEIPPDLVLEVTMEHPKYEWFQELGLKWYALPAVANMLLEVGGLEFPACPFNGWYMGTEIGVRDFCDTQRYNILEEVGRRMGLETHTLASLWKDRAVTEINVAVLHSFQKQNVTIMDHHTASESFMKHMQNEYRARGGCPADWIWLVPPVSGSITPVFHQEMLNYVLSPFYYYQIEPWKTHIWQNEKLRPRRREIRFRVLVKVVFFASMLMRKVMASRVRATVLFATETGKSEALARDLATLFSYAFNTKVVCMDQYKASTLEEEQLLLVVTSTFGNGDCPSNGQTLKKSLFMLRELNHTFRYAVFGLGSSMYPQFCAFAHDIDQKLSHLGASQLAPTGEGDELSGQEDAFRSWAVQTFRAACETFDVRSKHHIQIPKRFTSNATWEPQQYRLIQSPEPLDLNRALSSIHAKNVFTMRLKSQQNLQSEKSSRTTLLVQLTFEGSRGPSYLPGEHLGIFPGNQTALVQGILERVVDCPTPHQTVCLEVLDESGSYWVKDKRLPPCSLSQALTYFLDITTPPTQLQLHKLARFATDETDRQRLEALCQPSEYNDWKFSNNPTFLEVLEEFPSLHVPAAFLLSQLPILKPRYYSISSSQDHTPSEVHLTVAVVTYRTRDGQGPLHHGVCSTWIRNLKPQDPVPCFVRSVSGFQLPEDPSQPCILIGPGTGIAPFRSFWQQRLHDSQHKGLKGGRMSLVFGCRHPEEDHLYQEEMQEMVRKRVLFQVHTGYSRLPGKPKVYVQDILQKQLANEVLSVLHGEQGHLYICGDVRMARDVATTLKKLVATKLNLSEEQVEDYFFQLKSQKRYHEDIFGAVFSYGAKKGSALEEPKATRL

Measured: IC50

5-hydroxytryptamine receptor 6, sequence (P50406 whole entry): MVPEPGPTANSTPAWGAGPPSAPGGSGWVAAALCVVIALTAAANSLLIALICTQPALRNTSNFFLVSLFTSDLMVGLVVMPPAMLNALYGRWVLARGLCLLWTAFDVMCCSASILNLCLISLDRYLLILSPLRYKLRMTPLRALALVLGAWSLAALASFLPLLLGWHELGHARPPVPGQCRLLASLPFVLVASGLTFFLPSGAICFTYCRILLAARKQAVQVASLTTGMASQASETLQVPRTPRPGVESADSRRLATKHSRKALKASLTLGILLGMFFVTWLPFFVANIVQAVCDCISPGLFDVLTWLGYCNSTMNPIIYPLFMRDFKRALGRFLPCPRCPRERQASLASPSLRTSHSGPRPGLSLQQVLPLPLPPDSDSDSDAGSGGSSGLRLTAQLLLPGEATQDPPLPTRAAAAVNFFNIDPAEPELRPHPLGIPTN
Beta-3 adrenergic receptor, sequence (P13945 whole entry): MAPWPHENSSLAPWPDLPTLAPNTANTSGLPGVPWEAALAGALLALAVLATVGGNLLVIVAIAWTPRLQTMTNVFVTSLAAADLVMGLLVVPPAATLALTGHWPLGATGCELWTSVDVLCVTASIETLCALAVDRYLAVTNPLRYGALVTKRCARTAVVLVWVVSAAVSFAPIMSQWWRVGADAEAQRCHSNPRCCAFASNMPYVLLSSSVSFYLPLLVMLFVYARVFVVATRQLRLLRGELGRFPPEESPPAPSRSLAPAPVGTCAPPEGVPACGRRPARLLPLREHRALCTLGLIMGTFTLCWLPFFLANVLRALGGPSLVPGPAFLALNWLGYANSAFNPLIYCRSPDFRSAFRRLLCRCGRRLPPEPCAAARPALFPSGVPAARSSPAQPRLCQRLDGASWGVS
C-C chemokine receptor type 5, sequence (P51681 whole entry): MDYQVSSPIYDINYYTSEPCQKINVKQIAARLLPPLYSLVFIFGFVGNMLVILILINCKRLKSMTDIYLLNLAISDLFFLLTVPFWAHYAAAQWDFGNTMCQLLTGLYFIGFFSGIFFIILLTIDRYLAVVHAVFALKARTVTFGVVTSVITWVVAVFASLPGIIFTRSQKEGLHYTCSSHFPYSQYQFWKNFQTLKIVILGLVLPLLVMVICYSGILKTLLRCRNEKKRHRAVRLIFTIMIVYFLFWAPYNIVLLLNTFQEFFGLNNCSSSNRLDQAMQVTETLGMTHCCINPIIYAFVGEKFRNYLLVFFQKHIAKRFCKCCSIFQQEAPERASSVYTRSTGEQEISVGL
Beta-2 adrenergic receptor, sequence (P07550 whole entry): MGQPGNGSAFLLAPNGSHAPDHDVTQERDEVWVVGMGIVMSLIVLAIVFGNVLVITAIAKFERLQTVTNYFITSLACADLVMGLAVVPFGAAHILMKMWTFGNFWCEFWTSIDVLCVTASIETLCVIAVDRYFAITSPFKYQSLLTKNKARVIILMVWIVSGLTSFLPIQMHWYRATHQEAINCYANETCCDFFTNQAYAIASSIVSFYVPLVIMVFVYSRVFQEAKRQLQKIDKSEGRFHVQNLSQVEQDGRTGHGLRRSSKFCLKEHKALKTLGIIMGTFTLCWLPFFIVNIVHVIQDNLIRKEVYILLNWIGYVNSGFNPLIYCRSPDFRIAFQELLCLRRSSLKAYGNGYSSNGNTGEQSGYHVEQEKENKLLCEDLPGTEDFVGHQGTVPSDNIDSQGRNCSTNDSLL

CC1=C(C(=O)O)N2C(=O)[C@@H](NC(=O)[C@H](N)c3ccccc3)[C@H]2SC1 [CEPHALEXIN ANHYDROUS]
Not Active: [1] | [2] | [3] | [4] | [5] | [6] | [7]

O=C(N[C@H](CO)[C@H](O)c1ccc([N+](=O)[O-])cc1)C(Cl)Cl [CHLORAMPHENICOL]
Not Active: [1] | [2] | [3] | [4] | [5] | [6] | [7]

ClC(Cl)Cl [CHLOROFORM]
Not Active: [1] | [2] | [3] | [4] | [5] | [6] | [7]

C=C1CC[C@H](O)C/C1=C/C=C1\CCC[C@]2(C)[C@@H]([C@H](C)CCCC(C)C)CC[C@@H]12 [CHOLECALCIFEROL]
Not Active: [1] | [2] | [3] | [4] | [5] | [6] | [7]

C[N+](C)(C)CCO.[Cl-] [CHOLINE CHLORIDE]
Not Active: [1] | [2] | [3] | [4] | [5] | [6] | [7]

CCOC(=O)C(C)(C)Oc1ccc(Cl)cc1 [CLOFIBRATE]
Not Active: [1] | [2] | [3] | [4] | [5] | [6] | [7]

CC(=O)OCC(=O)[C@@]1(O)CC[C@H]2[C@@H]3CCC4=CC(=O)CC[C@]4(C)[C@H]3C(=O)C[C@@]21C [CORTISONE ACETATE]
Not Active: [1] | [2] | [3] | [4] | [5] | [6] | [7]

O=c1ccc2ccccc2o1 [COUMARIN]
Not Active: [1] | [2] | [3] | [4] | [5] | [6] | [7]

C[C@@H]1C[C@@H]([C@H](O)CC2CC(=O)NC(=O)C2)C(=O)[C@@H](C)C1 [CYCLOHEXIMIDE]
Not Active: [1] | [2] | [3] | [4] | [5] | [6] | [7]

C/C=C/C[C@@H](C)[C@@H](O)[C@H]1C(=O)N[C@@H](CC)C(=O)N(C)CC(=O)N(C)[C@@H](CC(C)C)C(=O)N[C@@H](C(C)C)C(=O)N(C)[C@@H](CC(C)C)C(=O)N[C@@H](C)C(=O)N[C@H](C)C(=O)N(C)[C@@H](CC(C)C)C(=O)N(C)[C@@H](CC(C)C)C(=O)N(C)[C@@H](C(C)C)C(=O)N1C [CYCLOSPORINE]
Not Active: [1] | [2] | [3] | [4] | [5] | [6] | [7]

CN(C)/N=N/c1[nH]cnc1C(N)=O [DACARBAZINE]
Not Active: [1] | [2] | [3] | [4] | [5] | [6] | [7]

COc1ccc2c(c1)[C@]13CCCC[C@@H]1[C@H](C2)N(C)CC3 [DEXTROMETHORPHAN]
Not Active: [1] | [2] | [3] | [4] | [5] | [6] | [7]

CC(=O)Nc1c(I)c(NC(C)=O)c(I)c(C(=O)O)c1I [DIATRIZOIC ACID]
Not Active: [1] | [2] | [3] | [4] | [5] | [6] | [7]

COP(=O)(OC)OC=C(Cl)Cl [DICHLORVOS]
Not Active: [1] | [2] | [3] | [4] | [5] | [6] | [7]

O=C(O)Cc1ccccc1Nc1c(Cl)cccc1Cl [DICLOFENAC]
Not Active: [1] | [2] | [3] | [4] | [5] | [6] | [7]

C[C@H]1O[C@@H](O[C@H]2[C@@H](O)C[C@H](O[C@H]3[C@@H](O)C[C@H](O[C@H]4CC[C@@]5(C)[C@H](CC[C@@H]6[C@@H]5CC[C@]5(C)[C@@H](C7=CC(=O)OC7)CC[C@]65O)C4)O[C@@H]3C)O[C@@H]2C)C[C@H](O)[C@@H]1O [DIGITOXIN]
Not Active: [1] | [2] | [3] | [4] | [5] | [6] | [7]
